Assay results as given in patent US20160355475A1, “NOVEL INDOLE DERIVATIVE COMPOUND AND PHARMACEUTICAL COMPOSITION COMPRISING THE SAME” (CHONG KUN DANG PHARMACEUTICAL CORP., priority 2014, published 2016).

Columns and labels:
HDAC6 human recombinant = target: T1, HDAC6 human recombinant (Homo sapiens, UniProt Q9UBN7); assay: HDAC6 enzyme activity inhibition (fluorimetric, in vitro); format: biochemical; details: 37° C., 60 minutes; tested at 0.1, 1, 10, 100 and 1000 nM
T1 construct: purchased Calbiochem 382180
T1 sequence (Q9UBN7 1-1215): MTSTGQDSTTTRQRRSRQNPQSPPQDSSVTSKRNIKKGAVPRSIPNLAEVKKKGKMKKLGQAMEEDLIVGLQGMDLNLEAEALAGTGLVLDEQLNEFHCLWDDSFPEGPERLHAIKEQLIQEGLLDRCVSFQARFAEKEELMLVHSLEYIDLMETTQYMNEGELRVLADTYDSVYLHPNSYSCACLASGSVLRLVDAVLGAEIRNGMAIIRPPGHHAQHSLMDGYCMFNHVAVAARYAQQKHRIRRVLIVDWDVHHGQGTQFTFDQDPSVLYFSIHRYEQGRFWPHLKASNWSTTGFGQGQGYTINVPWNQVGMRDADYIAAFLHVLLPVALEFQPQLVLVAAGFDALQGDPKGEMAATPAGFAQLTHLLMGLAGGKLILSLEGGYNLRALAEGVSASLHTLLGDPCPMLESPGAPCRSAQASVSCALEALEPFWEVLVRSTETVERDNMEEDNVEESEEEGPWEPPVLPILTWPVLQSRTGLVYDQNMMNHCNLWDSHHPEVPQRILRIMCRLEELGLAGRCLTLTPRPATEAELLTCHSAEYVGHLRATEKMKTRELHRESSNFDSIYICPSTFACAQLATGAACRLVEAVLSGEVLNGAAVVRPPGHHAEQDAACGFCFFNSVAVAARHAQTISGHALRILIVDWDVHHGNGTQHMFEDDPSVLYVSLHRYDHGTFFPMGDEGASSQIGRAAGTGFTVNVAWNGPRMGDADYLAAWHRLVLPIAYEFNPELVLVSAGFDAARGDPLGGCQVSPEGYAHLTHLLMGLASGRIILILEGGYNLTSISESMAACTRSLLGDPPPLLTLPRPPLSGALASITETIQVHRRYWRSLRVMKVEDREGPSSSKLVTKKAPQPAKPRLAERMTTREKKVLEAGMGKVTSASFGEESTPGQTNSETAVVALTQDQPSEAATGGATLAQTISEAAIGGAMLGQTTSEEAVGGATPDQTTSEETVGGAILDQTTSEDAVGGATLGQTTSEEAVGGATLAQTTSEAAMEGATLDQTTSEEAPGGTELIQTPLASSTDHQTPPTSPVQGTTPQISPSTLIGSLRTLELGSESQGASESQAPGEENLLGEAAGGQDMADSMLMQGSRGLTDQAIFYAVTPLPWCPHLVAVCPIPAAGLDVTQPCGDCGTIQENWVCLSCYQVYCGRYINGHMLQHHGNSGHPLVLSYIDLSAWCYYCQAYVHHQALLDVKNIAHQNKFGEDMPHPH
Method: (§1) 1. Experiment on Activities in HDAC Enzymes (HDAC1 and HDAC6)
(§2) Assays were performed using a HDAC1 fluorimetric drug discovery assay kit (Enzolifesciences: BML-AK511) and a HDAC6 human recombinant (Calbiochem: 382180). The assay mixture of the kit was treated with each of the compounds of the Examples at concentrations 100, 1000 and 10000 nM for HDAC1 assay and 0.1, 1, 10, 100 and 1000 nM for HDAC6 assay. The treated assay mixture was allowed to react at 37° C. for 60 minutes, and then was treated with a developer and allowed to stand at 37° C. for 30 minutes, followed by quantification of the fluorescence. In Table 17, lower HDAC6 values (μM) indicate higher HDAC6 inhibitory activities of the compounds. Also, because selective HDAC6 inhibitors should not inhibit HDAC1 (μM), higher HDAC1 values indicate higher HDAC6 selectivity of the compounds.

HDAC1 = target: T2, HDAC1 (Homo sapiens, UniProt Q13547); assay: HDAC1 enzyme activity inhibition (HDAC1 fluorimetric drug discovery assay kit); format: biochemical; details: 37° C., 60 minutes; tested at 100, 1000 and 10000 nM
T2 construct: purchased Enzolifesciences BML-AK511
T2 sequence (Q13547 whole entry): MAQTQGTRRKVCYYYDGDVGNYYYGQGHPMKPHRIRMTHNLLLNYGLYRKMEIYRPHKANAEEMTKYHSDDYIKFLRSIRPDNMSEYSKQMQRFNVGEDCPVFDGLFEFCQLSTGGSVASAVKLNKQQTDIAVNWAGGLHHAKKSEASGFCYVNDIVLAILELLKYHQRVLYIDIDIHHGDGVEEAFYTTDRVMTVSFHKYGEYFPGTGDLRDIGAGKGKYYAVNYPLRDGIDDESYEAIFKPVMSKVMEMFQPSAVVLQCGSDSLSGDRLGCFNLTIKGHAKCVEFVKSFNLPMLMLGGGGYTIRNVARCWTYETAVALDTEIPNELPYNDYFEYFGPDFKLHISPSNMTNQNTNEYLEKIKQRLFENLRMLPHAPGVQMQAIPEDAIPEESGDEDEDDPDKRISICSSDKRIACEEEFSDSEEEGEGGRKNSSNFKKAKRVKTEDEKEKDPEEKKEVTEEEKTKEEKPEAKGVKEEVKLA
Method: as §1, §2

IC50 (HDAC6 human recombinant)	IC50 (HDAC1)	Structure (SMILES)
31 nM	6610 nM	Cc1c(Cc2ccc(C(=O)NO)cc2)c2ccccc2n1CCN1CCC(CF)C1 (stereo not shown) [Compound 591, 4-((1-(2-(3-(Fluoromethyl)pyrrolidin-1-yl)ethyl)-2-methyl-1H-indol-3-yl)methyl)-N-hydroxybenzamide]
61 nM	9100 nM	CC(=O)N1CCC(F)(CN2CCC(Cn3c(C)c(Cc4ccc(C(=O)NO)cc4)c4ccccc43)CC2)CC1 [Compound 612, 4-((1-((1-((1-acetyl-4-fluoropiperidin-4-yl)methyl)piperidin-4-yl)methyl)-2-methyl-1H-indol-3-yl)methyl)-N-hydroxybenzamide]
79 nM	> 10000 nM	Cc1c(Cc2ccc(C(=O)NO)cc2)c2ccccc2n1CC1CCN(CC2(F)CCN(C(=O)OC(C)(C)C)CC2)CC1 [Compound 610, Tert-butyl 4-fluoro-4-((4-((3-(4-(hydroxycarbamoyl)benzyl)-2-methyl-1H-indol-1-yl)methyl)piperidin-1-yl)methyl)piperidine-1-carboxylate]
71 nM	5720 nM	CC(C)(F)CN1CCC(Cn2c(-c3cncnc3)c(Cc3ccc(C(=O)NO)cc3)c3ccccc32)CC1 [Compound 625, 4-((1-((1-(2-Fluoro-2-methylpropyl)piperidin-4-yl)methyl)-2-(pyrimidin-5-yl)-1H-indol-3-yl)methyl)-N-hydroxybenzamide]
206 nM	> 10000 nM	Cc1c(Cc2ccc(C(=O)NO)cc2)c2ccccc2n1CC1CCN(Cc2cccc(-c3nccs3)c2)CC1 [Compound 603, N-hydroxy-4-((2-methyl-1-((1-(3-(thiazol-2-yl)benzyl)piperidin-4-yl)methyl)-1H-indol-3-yl)methyl)benzamide]
24 nM	2930 nM	Cc1c(Cc2ccc(C(=O)NO)cc2)c2ccccc2n1CC1CCN(CC2(F)CCNCC2)CC1 [Compound 611, 4-((1-((1-((4-fluoropiperidin-4-yl)methyl)piperidin-4-yl)methyl)-2-methyl-1H-indol-3-yl)methyl)-N-hydroxybenzamide]
870 nM	> 10000 nM	CCC(F)(CC)CN1CCC(CCn2c(C)c(Cc3ccc(C(=O)NO)cc3)c3ccccc32)CC1 [Compound 581, 4-((1-(2-(1-(2-Ethyl-2-fluorobutyl)piperidin-4-yl)ethyl)-2-methyl-1H-indol-3-yl)methyl)-N-hydroxybenzamide]
4 nM	1260 nM	Cc1c(Cc2ccc(C(=O)NO)cc2)c2ccccc2n1CCN1CCC[C@H]1CO [Compound 199, (S)—N-hydroxy-4-((1-(2-(2-(hydroxymethyl)pyrrolidin-1-yl)ethyl)-2-methyl-1H-indol-3-yl)methyl)benzamide]
5 nM	1890 nM	COCCN1CCN(CCn2c(C)c(Cc3ccc(C(=O)NO)cc3)c3ccccc32)CC1 [Compound 198, N-hydroxy-4-((1-(2-(4-(2-methoxyethyl)piperazin-1-yl)ethyl)-2-methyl-1H-indol-3-yl)methyl)benzamide]
8 nM	1810 nM	Cc1c(Cc2ccc(C(=O)NO)cc2)c2ccccc2n1CCN1CCN(CCO)CC1 [Compound 197, N-hydroxy-4-((1-(2-(4-(2-hydroxyethyl)piperazin-1-yl)ethyl)-2-methyl-1H-indol-3-yl)methyl)benzamide]
17 nM	3140 nM	Cc1c(Cc2ccc(C(=O)NO)cc2)c2ccccc2n1CCN1CCCC(CO)C1 (stereo not shown) [Compound 594, N-hydroxy-4-((1-(2-(3-(hydroxymethyl)piperidin-1-yl)ethyl)-2-methyl-1H-indol-3-yl)methyl)benzamide]
92 nM	8590 nM	Cc1c(Cc2ccc(C(=O)NO)cc2)c2ccccc2n1CC1CN(CC2(F)COC2)C1 [Compound 749, 4-((1-((1-((3-Fluorooxetan-3-yl)methyl)azetidin-3-yl)methyl)-2-methyl-1H-indol-3-yl)methyl)-N-hydroxybenzamide]
115 nM	7600 nM	Cc1c(Cc2ccc(C(=O)NO)cc2)c2ccccc2n1CCCN1CCN(CC(C)(C)F)CC1 [Compound 640, 4-((1-(3-(4-(2-Fluoro-2-methylpropyl)piperazin-1-yl)propyl)-2-methyl-1H-indol-3-yl)methyl)-N-hydroxybenzamide]
98 nM	5600 nM	CCCc1c(Cc2ccc(C(=O)NO)cc2)c2ccccc2n1CC1CCN(CC(C)(C)O)CC1 [Compound 601, N-hydroxy-4-((1-((1-(2-hydroxy-2-methylpropyl)piperidin-4-yl)methyl)-2-propyl-1H-indol-3-yl)methyl)benzamide]
378 nM	6730 nM	Cc1c(Cc2ccc(C(=O)NO)cc2)c2cc(F)ccc2n1CC1CCN(CC(C)(C)F)CC1 [Compound 588, 4-((5-Fluoro-1-((1-(2-fluoro-2-methylpropyl)piperidin-4-yl)methyl)-2-methyl-1H-indol-3-yl)methyl)-N-hydroxybenzamide]
25 nM	370 nM	Cc1c(Cc2ccc(C(=O)NO)cc2)c2ccccc2n1CCN1CCN(CC(C)(C)F)CC1 [Compound 564, 4-((1-(2-(4-(2-Fluoro-2-methylpropyl)piperazin-1-yl)ethyl)-2-methyl-1H-indol-3-yl)methyl)-N-hydroxybenzamide]
9 nM	2470 nM	Cc1nccn1CCn1c(C)c(Cc2ccc(C(=O)NO)cc2)c2ccccc21 [Compound 201, N-hydroxy-4-((2-methyl-1-(2-(2-methyl-1H-imadazol-1-yl)ethyl)-1H-indol-3-yl)methyl)benzamide]
27 nM	2460 nM	Cc1c(Cc2ccc(C(=O)NO)cc2)c2cc(F)ccc2n1CC1CCN(CC(C)(C)O)CC1 [Compound 582, 4-((5-Fluoro-1-((1-(2-hydroxy-2-methylpropyl)piperidin-4-yl)methyl)-2-methyl-1H-indol-3-yl)methyl)-N-hydroxybenzamide]
63 nM	1790 nM	Cc1c(Cc2ccc(C(=O)NO)cc2)c2ccccc2n1CC1CCN(Cc2cccnc2)CC1 [Compound 632, N-hydroxy-4-((2-methyl-1-((1-(pyridin-3-ylmethyl)piperidin-4-yl)methyl)-1H-indol-3-yl)methyl)benzamide]
75 nM	1760 nM	Cc1c(Cc2ccc(C(=O)NO)cc2)c2ccccc2n1CCN1C[C@@H](C)N(CC(C)(C)F)[C@@H](C)C1 [Compound 633, 4-((1-(2-((3S,5R)-4-(2-fluoro-2-methylpropyl)-3,5-dimethylpiperazin-1-yl)ethyl)-2-methyl-1H-indol-3-yl)methyl)-N-hydroxybenzamide]
8 nM	2610 nM	COC[C@@H]1CCCN1CCn1c(C)c(Cc2ccc(C(=O)NO)cc2)c2ccccc21 [Compound 200, (S)—N-hydroxy-4-((1-(2-(2-(methoxymethyl)pyrrolidin-1-yl)ethyl)-2-methyl-1H-indol-3-yl)methyl)benzamide]
49 nM	6120 nM	Cc1c(Cc2ccc(C(=O)NO)cc2)c2cc(F)ccc2n1CCN1CCC(F)CC1 [Compound 590, 4-((5-Fluoro-1-(2-(4-fluoropiperidin-1-yl)ethyl)-2-methyl-1H-indol-3-yl)methyl)-N-hydroxybenzamide]
7 nM	1070 nM	Cc1c(Cc2ccc(C(=O)NO)cc2)c2ccccc2n1CC1CCN(CC(C)(C)O)CC1 [Compound 608, N-hydroxy-4-((1-((1-(2-hydroxy-2-methylpropyl)piperidin-4-yl)methyl)-2-methyl-1H-indol-3-yl)methyl)benzamide]
